{
  "source": "ChEMBL document CHEMBL1201862",
  "about": "“PubChem BioAssay data set” (2004)",
  "key": {"INS1": {"test_system": "INS1", "experiment": "beta cell apoptosis inhibitors, cytokine rescue, dose response, luminescence, retest (AID 449756);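 note: cell death triggered by IL-1 beta plus TNF-alpha plus IFN-gamma mixture; protective hits raise ATP signal compared with cytokine alone wells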", "type": "functional, cell-based", "details": "Rattus norvegicus, INS1"}, "[1]": {"experiment": "microbe, parasite or virus in culture", "type": "functional", "details": "Mycobacterium tuberculosis"}, "[2]": {"biological_target": "T1, High affinity choline transporter 1 (Homo sapiens, UniProt Q9GZV3)", "T1 sequence (Q9GZV3 whole entry)": "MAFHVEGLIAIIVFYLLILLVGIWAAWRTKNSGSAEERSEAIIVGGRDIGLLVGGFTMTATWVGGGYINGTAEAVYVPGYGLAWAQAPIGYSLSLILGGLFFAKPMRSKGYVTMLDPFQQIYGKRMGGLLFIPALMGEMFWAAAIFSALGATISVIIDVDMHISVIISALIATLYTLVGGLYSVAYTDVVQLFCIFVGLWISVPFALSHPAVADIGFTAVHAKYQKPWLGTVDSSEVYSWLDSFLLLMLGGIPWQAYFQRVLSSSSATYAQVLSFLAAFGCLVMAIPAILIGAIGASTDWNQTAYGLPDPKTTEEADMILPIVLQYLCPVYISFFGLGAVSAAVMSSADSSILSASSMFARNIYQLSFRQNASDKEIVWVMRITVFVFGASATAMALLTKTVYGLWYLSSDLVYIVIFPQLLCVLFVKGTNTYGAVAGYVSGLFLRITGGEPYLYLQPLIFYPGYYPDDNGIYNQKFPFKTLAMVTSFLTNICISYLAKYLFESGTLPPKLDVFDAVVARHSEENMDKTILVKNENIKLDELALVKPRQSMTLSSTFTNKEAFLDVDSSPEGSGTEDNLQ", "experiment": "CHT inhibitors, dose response, cell-based, 5-point CRC, membrane potential dye (AID 504840)", "type": "functional"}, "[3]": {"biological_target": "Neurotensin receptor type 1 (Homo sapiens, UniProt P30989)", "sequence (P30989 whole entry)": "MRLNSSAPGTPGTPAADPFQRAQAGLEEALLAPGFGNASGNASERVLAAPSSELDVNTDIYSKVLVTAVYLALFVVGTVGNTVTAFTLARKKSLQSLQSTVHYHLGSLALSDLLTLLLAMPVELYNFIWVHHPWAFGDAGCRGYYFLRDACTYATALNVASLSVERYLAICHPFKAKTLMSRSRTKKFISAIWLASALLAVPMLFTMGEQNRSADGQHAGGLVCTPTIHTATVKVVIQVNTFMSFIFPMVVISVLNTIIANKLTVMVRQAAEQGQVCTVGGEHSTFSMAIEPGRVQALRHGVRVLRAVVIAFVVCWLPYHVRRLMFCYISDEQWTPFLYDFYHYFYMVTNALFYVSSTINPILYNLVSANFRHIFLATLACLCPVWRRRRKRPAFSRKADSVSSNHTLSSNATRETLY", "type": "functional"}, "[4]": {"experiment": "Cytotoxicity screening for potential Inhibitors of Bacterial Capsule Biogenesis. [Related pubchem assays (depositor defined):AID488970]", "type": "functional"}, "[5]": {"biological_target": "Voltage-dependent T-type calcium channel subunit alpha-1H (Homo sapiens, UniProt O95180)", "sequence (O95180 whole entry)": "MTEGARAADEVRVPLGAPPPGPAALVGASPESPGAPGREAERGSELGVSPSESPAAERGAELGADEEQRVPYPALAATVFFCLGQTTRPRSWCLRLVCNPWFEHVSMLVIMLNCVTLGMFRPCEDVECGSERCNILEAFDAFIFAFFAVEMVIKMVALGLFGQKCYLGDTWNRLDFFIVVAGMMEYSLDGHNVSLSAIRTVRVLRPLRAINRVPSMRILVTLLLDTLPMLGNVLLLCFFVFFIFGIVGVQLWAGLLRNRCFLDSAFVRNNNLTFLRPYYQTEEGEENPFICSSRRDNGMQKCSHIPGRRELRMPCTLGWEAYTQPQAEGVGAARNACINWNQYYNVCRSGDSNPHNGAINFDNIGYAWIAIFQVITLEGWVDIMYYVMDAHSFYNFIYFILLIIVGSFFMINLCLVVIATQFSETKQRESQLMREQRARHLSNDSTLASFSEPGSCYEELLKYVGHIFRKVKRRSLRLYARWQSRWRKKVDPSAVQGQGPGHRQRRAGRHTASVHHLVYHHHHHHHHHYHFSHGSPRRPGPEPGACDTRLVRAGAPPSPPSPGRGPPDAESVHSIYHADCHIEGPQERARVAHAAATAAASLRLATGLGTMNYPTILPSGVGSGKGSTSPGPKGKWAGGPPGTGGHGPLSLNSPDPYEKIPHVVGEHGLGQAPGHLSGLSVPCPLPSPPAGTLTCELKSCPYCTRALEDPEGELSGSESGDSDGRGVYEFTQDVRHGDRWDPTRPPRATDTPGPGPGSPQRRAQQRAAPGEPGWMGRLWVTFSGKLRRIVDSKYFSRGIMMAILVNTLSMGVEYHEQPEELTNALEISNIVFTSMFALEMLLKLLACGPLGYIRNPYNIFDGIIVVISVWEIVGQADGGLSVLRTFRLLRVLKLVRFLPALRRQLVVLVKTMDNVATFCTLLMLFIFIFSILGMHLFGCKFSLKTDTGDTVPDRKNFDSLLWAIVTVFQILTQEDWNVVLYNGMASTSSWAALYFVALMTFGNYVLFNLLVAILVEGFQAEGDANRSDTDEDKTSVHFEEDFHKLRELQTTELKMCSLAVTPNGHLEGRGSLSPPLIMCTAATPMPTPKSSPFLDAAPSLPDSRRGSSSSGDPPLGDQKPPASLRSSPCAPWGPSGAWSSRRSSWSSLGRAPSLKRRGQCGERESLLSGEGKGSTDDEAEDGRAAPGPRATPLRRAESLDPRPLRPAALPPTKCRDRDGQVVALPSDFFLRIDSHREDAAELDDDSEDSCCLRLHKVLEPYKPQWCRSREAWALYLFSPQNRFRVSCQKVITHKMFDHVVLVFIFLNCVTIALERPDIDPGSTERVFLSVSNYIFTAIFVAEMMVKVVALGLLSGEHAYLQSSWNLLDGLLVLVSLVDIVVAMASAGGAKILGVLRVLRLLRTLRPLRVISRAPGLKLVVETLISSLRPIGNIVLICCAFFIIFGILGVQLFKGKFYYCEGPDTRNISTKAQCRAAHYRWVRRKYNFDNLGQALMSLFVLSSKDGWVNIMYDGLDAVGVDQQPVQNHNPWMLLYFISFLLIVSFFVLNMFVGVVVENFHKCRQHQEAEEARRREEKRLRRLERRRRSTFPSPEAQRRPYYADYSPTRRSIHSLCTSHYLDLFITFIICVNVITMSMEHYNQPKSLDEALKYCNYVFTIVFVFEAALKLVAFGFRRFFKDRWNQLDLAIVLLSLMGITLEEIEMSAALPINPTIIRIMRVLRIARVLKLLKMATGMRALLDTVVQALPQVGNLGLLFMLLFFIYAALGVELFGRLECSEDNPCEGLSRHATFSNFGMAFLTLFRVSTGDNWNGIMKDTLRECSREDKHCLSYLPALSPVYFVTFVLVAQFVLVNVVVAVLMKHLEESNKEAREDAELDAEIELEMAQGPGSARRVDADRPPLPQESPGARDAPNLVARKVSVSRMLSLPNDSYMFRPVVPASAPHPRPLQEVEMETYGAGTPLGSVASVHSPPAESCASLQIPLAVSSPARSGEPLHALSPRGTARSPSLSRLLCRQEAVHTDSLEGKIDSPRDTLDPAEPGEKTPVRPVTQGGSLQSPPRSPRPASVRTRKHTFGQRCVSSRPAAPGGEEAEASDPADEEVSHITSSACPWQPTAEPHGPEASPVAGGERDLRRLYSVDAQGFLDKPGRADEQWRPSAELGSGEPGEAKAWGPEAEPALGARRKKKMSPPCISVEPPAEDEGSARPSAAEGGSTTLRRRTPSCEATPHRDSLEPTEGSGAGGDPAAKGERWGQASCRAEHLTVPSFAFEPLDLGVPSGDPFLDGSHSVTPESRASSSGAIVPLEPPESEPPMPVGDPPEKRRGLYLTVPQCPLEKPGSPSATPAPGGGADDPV", "experiment": "Cav3.2 T-type channel inhibitors, cell-based, synthetic library set 1, calcium flux (AID 493022)", "type": "functional"}, "HEK293 [6]": {"test_system": "HEK293", "experiment": "NOD2 signaling inhibitors in MDP-stimulated cells, cell-based, uHTS, luminescence (AID 2001)", "type": "functional", "details": "Homo sapiens"}, "[7]": {"experiment": "C. albicans growth with fluconazole, confirmation, fluorescence, retest (AID 2467)", "type": "functional, cell-based"}, "[8]": {"biological_target": "Nucleotide-binding oligomerization domain-containing protein 2 (Homo sapiens, UniProt Q9HC29)", "sequence (Q9HC29 whole entry, the tested form may be a part)": "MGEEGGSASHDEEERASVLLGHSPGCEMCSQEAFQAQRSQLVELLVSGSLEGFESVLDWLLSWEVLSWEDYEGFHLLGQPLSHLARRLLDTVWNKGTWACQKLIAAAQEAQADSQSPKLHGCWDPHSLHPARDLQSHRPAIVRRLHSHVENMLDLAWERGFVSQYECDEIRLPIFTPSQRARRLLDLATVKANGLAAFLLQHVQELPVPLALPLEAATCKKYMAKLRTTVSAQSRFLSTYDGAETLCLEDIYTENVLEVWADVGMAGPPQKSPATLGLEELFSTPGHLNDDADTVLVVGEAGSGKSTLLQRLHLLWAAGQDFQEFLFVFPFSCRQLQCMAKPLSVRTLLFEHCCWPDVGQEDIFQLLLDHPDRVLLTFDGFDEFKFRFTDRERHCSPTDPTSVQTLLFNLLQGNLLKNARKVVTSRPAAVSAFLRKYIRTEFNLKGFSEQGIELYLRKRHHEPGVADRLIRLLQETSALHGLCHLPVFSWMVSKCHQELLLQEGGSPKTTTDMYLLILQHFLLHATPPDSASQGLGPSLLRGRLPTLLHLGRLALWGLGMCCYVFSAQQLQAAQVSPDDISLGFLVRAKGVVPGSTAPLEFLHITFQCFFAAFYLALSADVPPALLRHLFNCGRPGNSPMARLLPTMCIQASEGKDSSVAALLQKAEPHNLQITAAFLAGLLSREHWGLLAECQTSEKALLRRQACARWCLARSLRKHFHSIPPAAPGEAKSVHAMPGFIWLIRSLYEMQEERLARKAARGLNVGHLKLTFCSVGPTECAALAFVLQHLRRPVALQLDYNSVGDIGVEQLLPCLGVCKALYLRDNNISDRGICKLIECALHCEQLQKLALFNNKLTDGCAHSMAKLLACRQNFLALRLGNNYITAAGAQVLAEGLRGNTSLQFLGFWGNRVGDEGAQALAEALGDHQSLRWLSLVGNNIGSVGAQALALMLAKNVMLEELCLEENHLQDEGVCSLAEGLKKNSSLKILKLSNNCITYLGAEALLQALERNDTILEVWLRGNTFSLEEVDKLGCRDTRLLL", "experiment": "NOD2 signaling inhibitors, cell-based, luminescence, uHTS, HEK293 (AID 1566)", "type": "functional"}, "[9]": {"experiment": "NIH-3T3 fibroblast cytotoxicity, dose response, cytotoxicity control, cell-based, fluorescence, Alamar Blue, secondary assay (AID 2327);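 note: NIH-3T3 mouse fibroblasts cultured with fluconazole at 8 µg/mL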", "type": "functional"}, "HEK293 [10]": {"test_system": "HEK293", "experiment": "NOD1 signaling inhibitors, primary screen, cell-based, luminescence, uHTS (AID 1578)", "type": "functional", "details": "Homo sapiens"}, "HEK293 [11]": {"test_system": "HEK293", "experiment": "cells", "type": "functional, cell-based", "details": "Homo sapiens"}, "HEK293 [12]": {"test_system": "HEK293", "experiment": "cells", "type": "functional, cell-based", "details": "Homo sapiens", "remark": "listed apart in the source"}, "HEK293 [13]": {"test_system": "HEK293", "experiment": "cells", "type": "functional, cell-based", "details": "Homo sapiens", "remark": "listed apart in the source"}, "[14]": {"experiment": "cytotoxicity in HEK-293T cells, dose response, cytotoxicity control for BCR NF-kB inhibitor project, luminescence, B-cell screen hits (AID 489021);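 note: HEK-293T cells carrying an NF-kB luciferase reporter; cells exposed to compound for about 14 hours before viability readout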", "type": "functional, cell-based"}, "[15]": {"biological_target": "NACHT, LRR and PYD domains-containing protein 3 (Homo sapiens, UniProt Q96P20)", "experiment": "NALP3 inhibitors in yeast, dose response, luminescent (AID 488799)", "type": "functional"}, "X-box-binding protein 1": {"biological_target": "X-box-binding protein 1 (Homo sapiens, UniProt P17861)", "sequence (P17861 whole entry)": "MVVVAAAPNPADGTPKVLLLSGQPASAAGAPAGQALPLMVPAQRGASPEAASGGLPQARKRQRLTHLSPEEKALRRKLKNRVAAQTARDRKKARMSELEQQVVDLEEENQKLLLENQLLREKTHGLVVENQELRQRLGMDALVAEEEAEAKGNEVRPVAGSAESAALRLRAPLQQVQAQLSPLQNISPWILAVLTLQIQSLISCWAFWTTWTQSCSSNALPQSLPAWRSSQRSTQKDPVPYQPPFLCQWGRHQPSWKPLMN", "type": "functional, Cricetulus griseus"}, "[16]": {"biological_target": "DNA damage-inducible transcript 3 protein (Mus musculus, UniProt P35639)", "type": "functional, Cricetulus griseus"}, "[17]": {"experiment": "Luminescence Cell-Based Dose Confirmation HTS to Identify Inhibitors of Platelet Dense Granule Release. [Related pubchem assays: 1663 (Primary HTS), 1678 (Summary of Project)]", "type": "functional"}, "[18]": {"biological_target": "Luciferin 4-monooxygenase (Photinus pyralis, UniProt P08659)", "experiment": "firefly luciferase enzyme inhibitors, dose response, biochemical, luminescence (AID 1891)"}, "[19]": {"biological_target": "Metabotropic glutamate receptor 4 (Homo sapiens, UniProt Q14833)", "sequence (Q14833 whole entry)": "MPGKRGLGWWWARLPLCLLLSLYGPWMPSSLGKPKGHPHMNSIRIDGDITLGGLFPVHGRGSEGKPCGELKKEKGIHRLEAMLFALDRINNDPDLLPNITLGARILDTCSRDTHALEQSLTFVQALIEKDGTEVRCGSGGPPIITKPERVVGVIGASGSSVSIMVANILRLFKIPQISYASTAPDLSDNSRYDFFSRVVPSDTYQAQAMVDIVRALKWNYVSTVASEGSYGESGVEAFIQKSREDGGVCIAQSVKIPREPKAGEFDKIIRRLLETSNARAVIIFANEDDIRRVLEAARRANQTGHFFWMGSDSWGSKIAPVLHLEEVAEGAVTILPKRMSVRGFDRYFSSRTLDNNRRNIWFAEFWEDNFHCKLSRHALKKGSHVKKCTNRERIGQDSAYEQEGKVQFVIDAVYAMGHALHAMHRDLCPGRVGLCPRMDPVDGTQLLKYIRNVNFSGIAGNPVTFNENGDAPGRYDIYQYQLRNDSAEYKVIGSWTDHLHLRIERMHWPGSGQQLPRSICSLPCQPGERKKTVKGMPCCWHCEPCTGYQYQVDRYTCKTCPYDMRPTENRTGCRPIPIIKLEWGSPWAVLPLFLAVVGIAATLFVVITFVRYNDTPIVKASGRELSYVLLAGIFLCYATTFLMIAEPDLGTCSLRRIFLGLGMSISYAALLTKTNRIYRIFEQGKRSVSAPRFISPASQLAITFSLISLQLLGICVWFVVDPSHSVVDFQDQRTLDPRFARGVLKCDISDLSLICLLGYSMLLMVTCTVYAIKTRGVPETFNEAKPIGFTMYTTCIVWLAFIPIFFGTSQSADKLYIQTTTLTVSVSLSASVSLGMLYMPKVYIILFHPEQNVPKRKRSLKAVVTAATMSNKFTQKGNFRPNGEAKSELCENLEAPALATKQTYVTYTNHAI", "experiment": "Modulation of the Metabotropic Glutamate Receptor mGluR4: Potency at human mGluR4. Modulation of intracellular Ca2+ using Fluo-4, AM, in CHO expressing recombinant receptor [Related pubchem assays (depositor defined):AID2437, AID2807]", "type": "functional, cell-based"}},
  "note": "Calls of active or inactive are those of the source.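 Throughout, for Absolute IC50 (XBP1): confirmatory dose-response counter-screen serving a CHOP assay.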",
  "data": [
    {"smiles": "COc1ccc(C(CCN2CCCCC2)c2c(OC)cc(OC)c3c(-c4ccccc4)cc(=O)oc23)cc1", "note": "(configuration not stated)", "values": [
      {"measurement": "AC50", "setting": "INS1", "value": "10.7 µM (active)"},
      {"measurement": "CC50", "setting": "[1]", "value": "20.5 µM (active)"},
      {"measurement": "IC50", "setting": "[2]", "value": "12.6 µM (active)"},
      {"measurement": "EC50", "setting": "[3]", "value": "14.7 µM (active)"}
    ]},
    {"smiles": "Cc1ccc(C2c3c(oc4cc(C)c(C)cc4c3=O)C(=O)N2CCCN2CCOCC2)cc1", "note": "(configuration not stated)", "values": [
      {"measurement": "CC50", "setting": "[4]", "value": "44.4 µM (active)"}
    ]},
    {"smiles": "O=C(COc1ccc(F)cc1)Nc1nnc(-c2ccc3c(c2)OCO3)o1", "values": [
      {"measurement": "EC50", "setting": "[5]", "value": "10 µM (active)"}
    ]},
    {"smiles": "COc1ccc(-c2n(Cc3ccccc3)c3ccccc3[n+]2Cc2ccccc2)cc1", "values": [
      {"measurement": "IC50", "setting": "HEK293 [6]", "value": "3.69 µM (active)"},
      {"measurement": "AC50", "setting": "INS1", "value": "3.85 µM (active)"},
      {"measurement": "EC50", "setting": "[7]", "value": "> 38 µM (not active)"},
      {"measurement": "EC50", "setting": "[8]", "value": "9.35 µM (active)"},
      {"measurement": "EC50", "setting": "[9]", "value": "> 150 µM (inactive)"},
      {"measurement": "EC50", "setting": "HEK293 [10]", "value": "4.23 µM (active)"},
      {"measurement": "IC50", "setting": "HEK293 [11]", "value": "> 20 µM (inactive)"},
      {"measurement": "IC50", "setting": "HEK293 [12]", "value": "11.7 µM (active)"},
      {"measurement": "IC50", "setting": "HEK293 [13]", "value": "1.21 µM (active)"},
      {"measurement": "IC50", "setting": "[14]", "value": "> 80 µM (inactive)"}
    ]},
    {"smiles": "Cc1onc(-c2ccccc2Cl)c1C(=O)N1C=CC(C(F)(F)F)=NCC1", "values": [
      {"measurement": "IC50", "setting": "[15]", "value": "8.66 µM (active)"}
    ]},
    {"smiles": "O=C(Nc1cccc(C(F)(F)F)c1)NC1CCN(S(=O)(=O)c2ccc(F)cc2)CC1", "values": [
      {"measurement": "Absolute IC50 (XBP1)", "setting": "X-box-binding protein 1", "value": 10, "unit": "µM"},
      {"measurement": "Absolute IC50 (CHOP)", "setting": "[16]", "value": 10, "unit": "µM"}
    ]},
    {"smiles": "COc1ccc(NC(=O)c2ccccn2)cc1OC", "values": [
      {"measurement": "EC50", "setting": "[17]", "value": "42.7 µM (active)"},
      {"measurement": "EC50", "setting": "[18]", "value": "> 112 µM (not active)"},
      {"measurement": "EC50", "setting": "[19]", "value": "3.65 µM (active)"}
    ]}
  ]
}
